# From patent publication US20230416412A1, “PREVENTION OR MITIGATION OF T-CELL ENGAGING AGENT-RELATED ADVERSE EFFECTS” (Hoffmann-La Roche Inc., priority 2022, published 2023)
# Assays:
# [1] = test system: CD19+ B cells; test: Whole blood assay: CD20-TCB-induced killing of CD19+ B cells (flow cytometry); format: cell-based, human; details: 10 μM NLRP3 inhibitor, escalating CD20-TCB, fresh whole blood of 3 healthy donors, 24 hrs
# Protocol: (§1) FIGS. 1A-1N. Effect of the NLRP3 inhibitor on CD20-TCB-mediated T cell activation, B cell depletion and cytokine release. Fresh whole blood from a healthy donor (donor 1) was incubated with escalating doses of CD20-TCB and 10 μM NLRP3 inhibitor. At 24 hrs, blood from technical replicates was pooled and lysed. FIG. 1A. The killing of CD19+ B cells was measured by flow cytometry. FIG. 1B and FIG. 1C. The expression of CD25 on CD4+ (1B) and CD8+ (1C) T cells was measured by flow cytometry. At 24 hrs, serum from technical replicates were collected and pooled. FIG. 1D-FIG. 1N. The levels of IFN-γ (1D), IL-2 (1E), IL-1β (1F), IL-1Ra (1G), TNF-α (1H), IP-10 (1I), IL-6 (1J), IL-8 (1K), MCP-1 (1L), MIP-1α (1M) and MIP-1β (1N) were measured by Luminex.
# FIGS. 2A-2N. Effect of the NLRP3 inhibitor on CD20-TCB-mediated T cell activation, B cell depletion and cytokine release. […] The killing of CD19+ B cells was measured by flow cytometry. […] The expression of CD25 on CD4+ (FIG. 2B) and CD8+ (FIG. 2C) T cells was measured by flow cytometry. […] The levels of IFN-γ (2D), IL-2 (2E), IL-1β (2F), IL-1Ra (2G), TNF-α (2H), IP-10 (2I), IL-6 (2J), IL-8 (2K), MCP-1 (2L), MIP-1α (2M) and MIP-1β (2N) were measured by Luminex.
# FIGS. 3A-3N. […] The killing of CD19+ B cells was measured by flow cytometry. […] The expression of CD25 on CD4+ (3B) and CD8+ (3C) T cells was measured by flow cytometry. […]
# [2] = test system: cytokine release; test: CD20-TCB-mediated cytokine release in vivo, serum cytokines by Luminex; design: species or system humanized NSG mice; details: 3 hrs after first CD20-TCB treatment
# Protocol: FIGS. 5A-5E. Effect of the NLRP3 inhibitor on IL-2, IFN-γ, TNF-α, IL-1β, and IL-6 induced by CD20-TCB. Treatment was performed as described in FIG. 4. Blood was collected by tail-vein bleedings 3 hrs after the 1st CD20-TCB therapy. The levels of FIG. 5A. IL-2, FIG. 5B. IFN-γ, FIG. 5C. TNF-α, FIG. 5D. IL-1β, and FIG. 5E. IL-6 were measured in the serum by Luminex. Means of n=5 mice+/−SEM.
# FIG. 6. Heatmap representing the effects of the NLRP3 inhibitor on CD20-TCB mediated cytokine release. Treatment was performed as described in FIG. 4. Blood was collected by tail-vein bleeding 3 hrs after the 1st CD20-TCB therapy. The levels of IFN-γ, IL-2, TNF-α, IP-10, IL-1β, IL-1Ra, IL-6, IL-8, MCP-1, MIP-1α and MIP-1β were measured in serum by Luminex for n=5 mice per group.
# The effects of the NLRP3 inhibitor on anti-tumor efficacy and cytokine release mediated by CD20-TCB in vivo were evaluated using a diffused large B cell lymphoma (DLBCL) tumor model in humanized NSG mice. Briefly, humanized NSG mice were engrafted with OCI-LY18 tumor cells. When the tumor volume reached 200 mm^3, mice were randomized in groups of 14 based on their tumor size. They were then pre-treated with 30 mg/kg obinutuzumab (Gazyva® pre-treatment, GpT) 7 days before being treated with CD20-TCB to deplete peripheral B cells. The NLRP3 inhibitor was given 1 hr before and 4 and 24 hrs after the first CD20-TCB treatment as well as 1 hr before and 4 hrs after the second CD20-TCB treatment.
# The levels of cytokines were measured in serum collected by tail-vein bleedings 3 hrs after the first treatment with CD20-TCB to determine the effects of the NLRP3 inhibitor on CD20-TCB-mediated cytokine release in vivo. In line with previous in vitro findings, the NLRP3 inhibitor retained IL-2, IFN-γ, TNF-α while reducing IL-6, IL-8 and IL-1β levels induced by CD20-TCB (FIGS. 5A-E, FIG. 6). In addition, the NLRP3 inhibitor modified the cytokine profile induced by CD20-TCB treatment, as indicated by the heat map showing the levels of IFN-γ, IL-2, TNF-α, […], IL-1Ra, IL-6, IL-8, MCP-1, MIP-1α and […] which were measured 3 hrs after the first treatment with CD20-TCB (FIG. 6). Last, we measured the body weight of each animal before and after the first treatment with CD20-TCB to calculate the body weight change. […] (FIG. 7).
# [3] = test system: OCI-LY18 tumor cells; test: Anti-tumor efficacy of CD20-TCB in DLBCL tumor model in humanized NSG mice; format: in vivo; details: 20 mg/kg NLRP3 inhibitor i.p.
# Protocol: FIGS. 4A-4B. Effect of the NLRP3 inhibitor on CD20-TCB-mediated anti-tumor efficacy. OCI-Ly18-bearing humanized NSG mice were pre-treated with 30 mg/kg obinutuzumab (Gazyva® pre-treatment, Gpt, dotted black arrow) and then treated with escalating doses of CD20-TCB (black arrows, 0.5 mg/kg on the 1st treatment, 1 mg/kg on the 2nd treatment and 2 mg/kg on the 3rd treatment) by intravenous (i.v.) injections. 20 mg/kg NLRP3 inhibitor (grey arrows) was given by intraperitoneal injections 1 hr before, 4 hrs and 24 hrs after the 1st CD20-TCB therapy as well as 1 hr before and 4 hrs after the 2nd CD20-TCB therapy. FIG. 4A. Tumor growth inhibition curves, means−/+SD. Tumor volumes were calculated from caliper measurements conducted 2 or 3 times per week. FIG. 4B. […] Tumors were digested and the counts of CD8+ T cells were measured by flow cytometry.
# (§2) The effects of the NLRP3 inhibitor on anti-tumor efficacy and cytokine release mediated by CD20-TCB in vivo were evaluated using a diffused large B cell lymphoma (DLBCL) tumor model in humanized NSG mice. […]
# To assess the effects of the NLRP3 inhibitor on tumor growth, tumor volumes were calculated from caliper measurements twice or three times per week. Furthermore, the counts of CD8+ T cells were measured by flow cytometry in tumors collected 24 hrs after the third treatment with CD20-TCB.
# [4] = test system: cytokine release in whole blood; test: Whole blood assay: CD20-TCB-mediated cytokine release, serum cytokines by Luminex; format: cell-based, human
# Protocol: as §1
# (§3) FIGS. 2A-2N. Effect of the NLRP3 inhibitor on CD20-TCB-mediated T cell activation, B cell depletion and cytokine release. Fresh whole blood from a healthy donor (donor 2) was incubated with escalating doses of CD20-TCB and 10 μM NLRP3 inhibitor. At 24 hrs, blood from technical replicates was pooled and lysed. FIG. 2A. The killing of CD19+ B cells was measured by flow cytometry. FIG. 2B and FIG. 2C. The expression of CD25 on CD4+ (FIG. 2B) and CD8+ (FIG. 2C) T cells was measured by flow cytometry. At 24 hrs, serum from technical replicates were collected and pooled. FIG. 2D-FIG. 2N. The levels of IFN-γ (2D), IL-2 (2E), IL-1β (2F), IL-1Ra (2G), TNF-α (2H), IP-10 (2I), IL-6 (2J), IL-8 (2K), MCP-1 (2L), MIP-1α (2M) and MIP-1β (2N) were measured by Luminex.
# (§4) FIGS. 3A-3N. Effect of the NLRP3 inhibitor on CD20-TCB-mediated T cell activation, B cell depletion and cytokine release. Fresh whole blood from a healthy donor (donor 3) was incubated with escalating doses of CD20-TCB and […] NLRP3 inhibitor. At 24 hrs, blood from technical replicates was pooled and lysed. FIG. 3A. The killing of CD19+ B cells was measured by flow cytometry. FIG. 3B and FIG. 3C. The expression of CD25 on CD4+ (3B) and CD8+ (3C) T cells was measured by flow cytometry. At 24 hrs, serum from technical replicates were collected and pooled. FIG. 3D-FIG. 3N. The levels of IFN-γ (3D), IL-2 (3E), IL-1β (3F), IL-1Ra (3G), TNF-α (3H), IP-10 (3I), IL-6 (3J), IL-8 (3K), MCP-1 (3L), MIP-1α (3M) and MIP-1β (3N) were measured by Luminex.
# (§5) To assess the effects of the NLRP3 inhibitor on TCB-mediated target cell killing and T cell activation, we conducted whole blood assays using fresh whole blood from 3 healthy donors incubated with escalating concentrations of CD20-TCB (SEQ ID NOs 4-23) in combination with 10 μM of the NLRP3 inhibitor (MCC950, Sigma-Aldrich). At 24 hrs, the killing of CD19+ B cells together with the expression of CD25 on CD4+ and CD8+ T cells was measured in whole blood by flow cytometry.
# The levels of cytokines were measured by Luminex in the serum of whole blood treated with CD20-TCB in the presence and in the absence of the NLRP3 inhibitor to determine the effects of the NLRP3 inhibitor on cytokine release.
# [5] = test system: CD4+ and CD8+ T cells; test: Whole blood assay: CD20-TCB-induced T cell activation, CD25 expression (flow cytometry); format: cell-based, human; details: 10 μM NLRP3 inhibitor, 24 hrs
# Protocol: as §1, §3, §4, §5
# [6] = Body weight change after first CD20-TCB therapy; format: in vivo, humanized NSG mice; details: before and after the first CD20-TCB treatment, 20 mg/kg NLRP3 inhibitor i.p.
# Protocol: FIG. 7. Effect of the NLRP3 inhibitor on body weight loss induced by the first CD20-TCB therapy. Treatment was performed as described in FIG. 4. The body weight of each animal was measured before and after the first therapy with CD20-TCB to calculate body weight change [%]. Means+/−SEM.
# as §2, with “mice. Briefly, humanized NSG mice were engrafted with OCI-LY18 tumor cells. When the tumor volume reached 200 mm^3, mice were randomized in groups of 14 based on their tumor size.” for “mice.”
# The levels of cytokines were measured in serum collected by tail-vein bleedings 3 hrs after the first treatment with CD20-TCB to determine the effects of the NLRP3 inhibitor on CD20-TCB-mediated cytokine release in vivo. […] In addition, the NLRP3 inhibitor modified the cytokine profile induced by CD20-TCB treatment, as indicated by the heat map showing the levels of IFN-γ, IL-2, TNF-α, […], IL-1Ra, IL-6, IL-8, MCP-1, MIP-1α and […] which were measured 3 hrs after the first treatment with CD20-TCB (FIG. 6). Last, we measured the body weight of each animal before and after the first treatment with CD20-TCB to calculate the body weight change. […]
# [7] = 10 μM NLRP3 inhibitor with CD20-TCB, whole blood serum, 24 hrs, 3 donors
# [8] = 10 μM NLRP3 inhibitor with CD20-TCB, whole blood serum, 24 hrs, in all 3 donors
structure (smiles),measurement,setting,value
"CC(C)(O)c1coc(S(=O)(=O)NC(=O)Nc2c3c(cc4c2CCC4)CCC3)c1 [NLRP3 inhibitor, MCC950]",CD20-TCB-induced B cell depletion (percentage of CD19+ B cells among CD45+ cells),[1],minimally interfered
same,CD20-TCB-induced B cell depletion (percentage of CD19+ B cells among CD45+ cells),[1]; listed as MCC950,retaining
same,serum IFN-γ level induced by CD20-TCB,[2]; 20 mg/kg NLRP3 inhibitor i.p.,retained
same,serum IL-1β level induced by CD20-TCB,[2]; 20 mg/kg NLRP3 inhibitor i.p.,reducing
same,serum IL-2 level induced by CD20-TCB,[2]; 20 mg/kg NLRP3 inhibitor i.p.,retained
same,serum IL-6 level induced by CD20-TCB,[2]; 20 mg/kg NLRP3 inhibitor i.p.,reducing
same,serum IL-8 level induced by CD20-TCB,[2]; 20 mg/kg NLRP3 inhibitor i.p.,reducing
same,serum TNF-α level induced by CD20-TCB,[2]; 20 mg/kg NLRP3 inhibitor i.p.,retained
same,cytokine profile induced by CD20-TCB treatment (heat map),[2]; 11 cytokines in serum,modified
same,anti-tumor efficacy mediated by CD20-TCB (tumor volume),"[3]; obinutuzumab pre-treatment, CD20-TCB 0.5, 1, 2 mg/kg i.v. weekly",did not interfere
same,CD8+ T cell infiltration in tumors,"[3]; 24 hrs after the third CD20-TCB treatment, flow cytometry",did not interfere
same,level of IFN-γ,[4]; [7],did not influence
same,level of IL-1Ra,[4]; [7],did not influence
same,level of IL-2,[4]; [7],did not influence
same,level of IP-10,[4]; [7],did not influence
same,level of MCP-1,[4]; [7],did not influence
same,level of MIP-1α,[4]; [7],did not influence
same,level of MIP-1β,[4]; [7],did not influence
same,level of TNF-α,[4]; [7],did not influence
same,level of IL-6,"[4]; 10 μM NLRP3 inhibitor with CD20-TCB, whole blood serum, 24 hrs, in 2 out of 3 donors",reduced
same,level of IL-1β,[4]; [8],reduced
same,level of IL-8,[4]; [8],reduced
same,TCB-induced cytokine release,[4]; general statement,reduce
same,T cell activation induced by CD20-TCB,[5],did not interfere
same,T cell activation induced by CD20-TCB,[5]; listed as MCC950,retaining
same,expression of the activation marker CD25 on CD4+ T cells,"[5]; escalating CD20-TCB, 3 donors",did not prevent
same,expression of the activation marker CD25 on CD8+ T cells,"[5]; escalating CD20-TCB, 3 donors",did not prevent
same,body weight loss induced by CD20-TCB,[6],prevented body weight loss
